Data: patent US8017791B2, “Tri-substituted 2-benzhydryl-5-benzylamino-tetrahydro-pyran-4-ol and 6-benzhydryl-4-benzylamino-tetrahydro-pyran-3-ol analogues, and novel, 3,6-disubstituted pyran derivatives” (Wayne State University, priority 2003, dated 2011)
“Also recorded” adds a separate entry of the source. Like-named read-outs stand apart in the source and are kept apart here.

Columns and labels:
SERT [1] = biological target: T1, SERT (Rattus norvegicus, UniProt P31652); assay: Inhibition of [3H]citalopram binding to SERT; conditions: for SERT binding/DAT binding: Table 3, selectivity ratio of IC50 values
T1 construct: rat striatum was the source for DAT, and cerebral cortex for SERT and NET; from tissue; host or cells: rat cerebral cortex
Method: (§1) Biology. […] Briefly, rat striatum was the source for DAT, and cerebral cortex for SERT and NET. […] Test compounds were dissolved in dimethyl sulfoxide (DMSO) and diluted out in 10% (v/v) DMSO. […] At least five triplicate concentrations of each test compound were studied, spaced evenly around the IC50 value. For DAT uptake assays, uptake of 50 nM [^3H]DA into rat striatal synaptosomes was measured exactly as described by us previously. Briefly, rat striatal P2 membrane fractions were incubated with test compounds for 8 min followed by the additional presence of [^3H]DA for 4 min at 25?. […] Construction of inhibition curves and dissolvement of test compounds were as described above.

NET [2] = biological target: NET (Rattus norvegicus, UniProt Q9WTR4); assay: Inhibition of [3H]nisoxetine binding to NET
Method: as §1

NET [3] = assay: Inhibition of [3H]nisoxetine binding to NET; design: species or system rat; conditions: Table 3; selectivity ratio of IC50 values
Method: as §1

DAT [4] = biological target: T2, DAT (Rattus norvegicus, UniProt P23977); assay: Inhibition of [3H]WIN 35,428 binding to DAT
T2 construct: rat striatum was the source for DAT, and cerebral cortex for SERT and NET; from tissue; P2 synaptosomal fraction for uptake
Method: as §1

DAT [5] = biological target: T2, DAT; assay: Inhibition of [3H]DA uptake by DAT into rat striatal synaptosomes; assay type: biochemical; conditions: for [3H]DA uptake/DAT binding: Table 3, ratio of IC50 values
Method: as §1

SERT [6] = biological target: T1, SERT; assay: SERT uptake inhibition, [3H]5-HT; assay type: biochemical; conditions: Table 4; for IC50: rat brain, read-out: SERT uptake, IC50 [3H]5-HT; for blockade of both SERT and NET (SNRI profile), in words: in vitro data
[7] = Table 1, read-out: Inhibition of [3H]citalopram binding to SERT, IC50
[8] = Table 2, average ± SEM, read-out: SERT binding, IC50 [3H]citalopram
[9] = Table 1, read-out: Inhibition of [3H]nisoxetine binding to NET, IC50
[10] = Table 2, average ± SEM, read-out: NET binding, IC50 [3H]nisoxetine
[11] = Table 1, rat striatum, read-out: Inhibition of [3H]Win 35,428 binding to DAT IC50
[12] = Table 2, average ± SEM of three to eight experiments, read-out: DAT binding, IC50, [3H]Win 35,428
[13] = Table 2, average ± SEM, read-out: DAT uptake, IC50 [3H]DA
[14] = Table 4, rat brain, read-out: DAT uptake, IC50 [3H]DA
[15] = Table 4, rat brain, read-out: DAT binding, IC50, [3H]Win 35,428

T1 sequence (P31652 whole entry): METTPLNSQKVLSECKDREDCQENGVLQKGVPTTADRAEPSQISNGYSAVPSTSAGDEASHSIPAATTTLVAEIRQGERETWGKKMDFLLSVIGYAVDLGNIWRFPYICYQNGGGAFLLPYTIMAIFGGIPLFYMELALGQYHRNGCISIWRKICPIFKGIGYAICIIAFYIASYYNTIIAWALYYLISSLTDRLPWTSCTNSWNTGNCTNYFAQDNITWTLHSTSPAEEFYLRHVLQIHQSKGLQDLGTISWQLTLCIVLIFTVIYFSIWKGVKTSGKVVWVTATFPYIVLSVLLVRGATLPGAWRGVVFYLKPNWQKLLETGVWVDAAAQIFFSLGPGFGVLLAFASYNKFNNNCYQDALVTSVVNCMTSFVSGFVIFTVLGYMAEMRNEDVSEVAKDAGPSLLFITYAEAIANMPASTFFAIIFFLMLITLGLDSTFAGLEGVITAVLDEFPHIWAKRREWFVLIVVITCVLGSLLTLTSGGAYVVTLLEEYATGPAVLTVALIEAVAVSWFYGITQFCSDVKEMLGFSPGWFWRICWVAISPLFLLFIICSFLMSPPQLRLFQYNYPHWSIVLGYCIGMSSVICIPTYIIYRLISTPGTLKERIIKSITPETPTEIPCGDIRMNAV
T2 sequence (P23977 whole entry): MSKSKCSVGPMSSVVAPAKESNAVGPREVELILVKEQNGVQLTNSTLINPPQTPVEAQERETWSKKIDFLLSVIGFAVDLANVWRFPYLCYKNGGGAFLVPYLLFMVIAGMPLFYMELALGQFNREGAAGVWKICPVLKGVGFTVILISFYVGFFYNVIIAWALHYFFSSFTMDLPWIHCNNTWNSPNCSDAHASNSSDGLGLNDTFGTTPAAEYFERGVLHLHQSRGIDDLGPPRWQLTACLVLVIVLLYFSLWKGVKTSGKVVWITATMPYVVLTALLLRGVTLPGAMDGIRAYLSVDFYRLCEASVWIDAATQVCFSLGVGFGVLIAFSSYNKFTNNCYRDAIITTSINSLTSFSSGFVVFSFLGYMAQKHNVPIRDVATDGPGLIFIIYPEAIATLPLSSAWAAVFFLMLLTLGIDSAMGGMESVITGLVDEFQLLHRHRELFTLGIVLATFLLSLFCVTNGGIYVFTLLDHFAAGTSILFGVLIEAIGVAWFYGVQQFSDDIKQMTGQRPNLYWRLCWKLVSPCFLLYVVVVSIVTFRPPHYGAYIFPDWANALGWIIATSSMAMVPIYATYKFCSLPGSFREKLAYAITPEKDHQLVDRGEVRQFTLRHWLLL

IC50 (SERT [1]; [8]) [nM] | SERT binding/DAT binding (SERT [1]) | IC50 (NET [2]; [10]) [nM] | NET binding/DAT binding (NET [3]) | IC50 (DAT [4]; [12]) [nM] | Compound | also measured
3310 | 2.5 | 5100 | 3.9 | 1300 | Fc1ccc(CN[C@H]2CCO[C@@H](C(c3ccccc3)c3ccccc3)C2)cc1 (relative stereo) [Compound 7a, cis-(2-benzhydryl-tetrahydropyran 4-yl)-(4-fluorobenzyl)-amine] | IC50 (SERT [1]; [7]): 3310 nM; IC50 (NET [2]; [9]): 5100 nM; activity at DAT, in words (DAT [4]): much weaker at DAT; IC50 (DAT [4]; [11]): 1300 nM
4780 | 3 | 17500 | 11.1 | 1580 | Fc1ccc(CN[C@@H]2CCO[C@@H](C(c3ccccc3)c3ccccc3)C2)cc1 (relative stereo) [Compound 7b, trans-(2-benzhydryl-tetrahydropyran-4-yl)-(4-fluoro-benzyl)-amine] | IC50 (SERT [1]; [7]): 4780 nM; IC50 (NET [2]; [9]): 17500 nM; activity at DAT, in words (DAT [4]): much weaker at DAT; IC50 (DAT [4]; [11]): 1580 nM
780 ± 84 | 1.9 | 144 ± 25 | 0.36 | 400 ± 31 | Clc1ccc(CN[C@H]2CC[C@@H](C(c3ccccc3)c3ccccc3)OC2)cc1Cl (relative stereo) [Compound 16i, Cis-(6-benzhydryl-tetrahydropyran-3-yl)-(3,4-dichloro-benzyl)-amine] | IC50 (DAT [5]; [13]): 880 ± 136 nM
3520 | 9.6 | 695 ± 142 | 1.9 | 368 ± 85 | Fc1ccc(CN[C@H]2CC[C@@H](C(c3ccccc3)c3ccccc3)OC2)cc1F (relative stereo) [Compound 16j, Cis-(6-benzhydryl-tetrahydropyran-3-yl)-(3,4-difluoro-benzyl)-amine] | –
1580 ± 97 | 5.20 | 274 ± 29 | 0.90 | 303 ± 14 | c1ccc(CN[C@H]2CC[C@@H](C(c3ccccc3)c3ccccc3)OC2)cc1 (relative stereo) [Compound 16k, Cis-(6-benzhydryl-tetrahydropyran-3-yl)-benzyl-amine] | IC50 (SERT [1]; [7]): 1580 ± 97 nM; IC50 (NET [2]; [9]): 274 ± 29 nM; IC50 (DAT [5]; Table 1, read-out: Inhibition of [3H]DA uptake by DAT, IC50): 242 ± 39 nM; IC50 (DAT [5]; [13]): 242 ± 39 nM; [3H]DA uptake/DAT binding (DAT [5]): 0.79; IC50 (DAT [4]; [11]): 303 ± 14 nM
2360 ± 92 | 11.69 | 592 ± 12 | 2.93 | 202 ± 13 | Brc1ccc(CN[C@H]2CC[C@@H](C(c3ccccc3)c3ccccc3)OC2)cc1 (relative stereo) [Compound 16l, Cis-(6-benzhydryl-tetrahydropyran-3-yl)-(4-bromo-benzyl)-amine] | IC50 (DAT [5]; [13]): 251 ± 14 nM; [3H]DA uptake/DAT binding (DAT [5]): 1.24
2480 ± 145 | 7.76 | 234 ± 17 | 0.73 | 319 ± 21 | Ic1ccc(CN[C@H]2CC[C@@H](C(c3ccccc3)c3ccccc3)OC2)cc1 (relative stereo) [Compound 16m, Cis-(6-benzhydryl-tetrahydropyran-3-yl)-(4-iodo-benzyl)-amine] | IC50 (DAT [5]; [13]): 500 ± 34 nM; [3H]DA uptake/DAT binding (DAT [5]): 1.56
– | – | – | – | – | Nc1ccc(CN[C@H]2CC[C@@H](C(c3ccccc3)c3ccccc3)OC2)cc1 (relative stereo) [Compound 16o, Cis-(6-benzhydryl-tetrahydropyran-3-yl)-(4-amino-benzyl)-amine] | potency at NET, in words (NET [2]): high potency at NET; also recorded: high potency for the NET; [3H]DA uptake/DAT binding (DAT [5]): 1.02
3950 | 30.6 | 5210 | 40.4 | 129 ± 58 | Fc1ccc(CCN[C@H]2CC[C@@H](C(c3ccccc3)c3ccccc3)OC2)cc1 (relative stereo) [Compound 16p, Cis-(6-benzhydryl-tetrahydropyran-3-yl)-[2-(4-fluoro-phenyl)-ethyl]-amine] | –
– | – | – | – | – | O[C@H]1C[C@H](C(c2ccccc2)c2ccccc2)OC[C@@H]1NCc1ccccc1 [(+)-29d, (2R,4S,5S)-2-benzhydryl-5-benzylamino-tetrahydro-pyran-4-ol] | IC50 (DAT [5]; [14]): 341 ± 43 nM; IC50 (DAT [4]; [15]): 596 ± 84 nM; IC50 (SERT [6]): 6120 ± 730 nM
– | – | – | – | – | Oc1ccc(CN[C@@H]2CC[C@H](C(c3ccccc3)c3ccccc3)OC2)cc1 [(+)-37a, cis-(3R,6R)-(6-benzhydryl-tetrahydropyran-3-yl)-(4-hydroxy-benzyl)-amine] | IC50 (DAT [5]; [14]): 90.7 ± 4 nM; IC50 (DAT [4]; [15]): 141 ± 2.2 nM; IC50 (SERT [6]): 209 ± 25 nM
– | – | – | – | – | O[C@@H]1C[C@@H](C(c2ccccc2)c2ccccc2)OC[C@H]1NCc1ccccc1 [(−)-29d, (2S,4R,5R)-2-benzhydryl-5-benzylamino-tetrahydro-pyran 4-ol] | IC50 (DAT [5]; [14]): 600 ± 79 nM; IC50 (SERT [6]): 862 ± 36 nM
– | – | – | – | – | O[C@@H]1C[C@@H](C(c2ccccc2)c2ccccc2)OC[C@H]1NCc1ccc2[nH]ccc2c1 [(−)-32b, (2S,4R,5R)-2-benzhydryl-5-[(1H-indol-5-ylmethyl)-amino]-tetrahydropyran-4-ol] | IC50 (DAT [5]; [14]): 162 ± 11 nM; IC50 (DAT [4]; [15]): 705 ± 176 nM; blockade of both SERT and NET (SNRI profile), in words (SERT [6]): potent blockers for both SERT and NET; blockade of both SERT and NET (SNRI profile), in words (SERT [6]; listed as (−)32b): dual transport blockers
– | – | – | – | – | Oc1ccc(CN[C@H]2CC[C@@H](C(c3ccccc3)c3ccccc3)OC2)cc1 [(−)-37a, cis-(3S,6S)-(6-benzhydryl-tetrahydropyran-3-yl)-(4-hydroxy-benzyl)-amine] | IC50 (DAT [5]; [14]): 114 ± 8 nM; IC50 (DAT [4]; [15]): 280 ± 8 nM; IC50 (SERT [6]): 42 ± 3 nM; blockade of both SERT and NET (SNRI profile), in words (SERT [6]): potent blockers for both SERT and NET; blockade of both SERT and NET (SNRI profile), in words (SERT [6]; listed as (−)37a): dual transport blockers
– | – | – | – | – | c1ccc(CN[C@H]2CC[C@@H](C(c3ccccc3)c3ccccc3)NC2)cc1 [Compound 1a, reference compound] | IC50 (NET [2]; read-out: Inhibition of [3H]nisoxetine binding to NET, IC50): 612 ± 130 nM
2590 | 3.3 | – | 2.3 | – | c1ccc(C(c2ccccc2)C2CCC(NCc3c[nH]c4ccccc34)CO2)cc1 (stereo not drawn) [Compound 16f, Cis-(6-benzhydryl-tetrahydropyran-3-yl)-(3-indole-methyl)-amine] | IC50 (NET [2]; read-out: IC50 for the NET): 1860 nM; IC50 (DAT [4]; read-out: IC50 at the DAT): 794 nM

Compound | IC50 (SERT [1]; [8]) [nM] | SERT binding/DAT binding (SERT [1]) | IC50 (NET [2]; [10]) [nM] | NET binding/DAT binding (NET [3]) | IC50 (DAT [4]; [12]) [nM] | also measured
N#Cc1ccc(CN[C@H]2CC[C@@H](C(c3ccccc3)c3ccccc3)OC2)cc1 (relative stereo) [Compound 16c, Cis-(6-benzhydryl-tetrahydropyran-3-yl)-(4-cyano-benzyl)-amine] | 863 ± 52 | – | 1580 | – | – | [3H]DA uptake/DAT binding (DAT [5]): 1.1
Oc1ccc(CN[C@H]2CC[C@@H](C(c3ccccc3)c3ccccc3)OC2)cc1 (relative stereo) [Compound 16h, Cis-(6-benzhydryl-tetrahydropyran-3-yl)-(4-hydroxy-benzyl)-amine] | 398 ± 22 | – | – | – | – | potency at NET, in words (NET [2]): high potency for the NET; IC50 (DAT [4]; read-out: IC50 at the DAT): 78.4 nM
c1ccc(C(c2ccccc2)[C@@H]2CC[C@H](NCc3ccc4[nH]ccc4c3)CO2)cc1 (relative stereo) [Compound 16n, Cis-(6-benzhydryl-tetrahydropyran-3-yl)-(1H-iodo-5-ylmethyl)-amine] | 325 ± 20 | 0.55 | 56 ± 6 | 0.09 | – | potency at NET, in words (NET [2]): high affinity; also recorded: strong selective potency at NET; IC50 (DAT [4]; read-out: DAT binding, IC50, [3H]Win 35,428): 587 ± 66 nM
